Test results published in ChEMBL document CHEMBL3769365, “Discovery of the First Potent and Selective Inhibitors of Human dCTP Pyrophosphatase 1” (J Med Chem, 2016).
≈ marks a conversion by molar mass, not a printed value. Each block holds one molecule with its values, some of them ahead of it.

Experiments:
dCTP pyrophosphatase 1 = target: T1, dCTP pyrophosphatase 1 (Homo sapiens, UniProt Q9H773); assay: Inhibition of human recombinant full length dCTPase expressed in Escherichia coli BL21(DE3)pLysS using dCTP as substrate after 1 hr by HTS-adapted Malachite Green assay
T1 sequence (Q9H773 whole entry): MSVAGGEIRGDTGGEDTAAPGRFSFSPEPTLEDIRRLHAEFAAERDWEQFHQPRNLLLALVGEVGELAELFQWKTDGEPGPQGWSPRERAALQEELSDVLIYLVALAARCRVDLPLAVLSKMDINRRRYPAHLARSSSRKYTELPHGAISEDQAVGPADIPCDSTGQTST

Liver microsome = assay: Half life in human liver microsomes; type: ADME
[1] = Half life in mouse liver microsomes; type: ADME
[2] = Aqueous solubility of the compound; type: physicochemical; details: buffer
[3] = Metabolic stability of plasma (unknown origin) assessed as compound remaining after 4 hrs; type: ADME, cell-free; details: read-out: Stability
[4] = Fraction unbound in plasma (unknown origin); type: ADME, cell-free
[5] = Efflux ratio of apparent permeability of the compound; type: ADME
Cytochrome P450 1A2 = target: T2, Cytochrome P450 1A2 (Homo sapiens, UniProt P05177); assay: Inhibition of CYP1A2 (unknown origin) using phenacetin as substrate preincubated for 10 mins followed by NADPH addition by LC/MS/MS analysis; type: ADME
T2 sequence (P05177 whole entry): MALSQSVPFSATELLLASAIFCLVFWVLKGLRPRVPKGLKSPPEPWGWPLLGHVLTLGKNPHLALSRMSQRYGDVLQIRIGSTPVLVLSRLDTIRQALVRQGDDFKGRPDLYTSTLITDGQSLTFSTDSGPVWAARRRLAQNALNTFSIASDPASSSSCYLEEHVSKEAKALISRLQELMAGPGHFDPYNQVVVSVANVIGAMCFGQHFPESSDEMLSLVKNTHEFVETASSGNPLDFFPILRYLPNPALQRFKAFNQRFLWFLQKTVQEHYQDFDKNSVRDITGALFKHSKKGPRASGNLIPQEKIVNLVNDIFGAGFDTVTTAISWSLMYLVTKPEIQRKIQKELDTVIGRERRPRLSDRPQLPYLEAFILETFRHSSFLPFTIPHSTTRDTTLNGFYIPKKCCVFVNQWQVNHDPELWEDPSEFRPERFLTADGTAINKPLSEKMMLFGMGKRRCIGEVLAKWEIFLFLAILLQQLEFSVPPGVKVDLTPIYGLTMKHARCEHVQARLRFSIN

Cytochrome P450 2C9 = Cytochrome P450 2C9 (Homo sapiens, UniProt P11712); assay: Inhibition of CYP2C9 (unknown origin) using diclofenac as substrate preincubated for 10 mins followed by NADPH addition by LC/MS/MS analysis; type: ADME
Chain of Cytochrome P450 2C9 (P11712 whole entry): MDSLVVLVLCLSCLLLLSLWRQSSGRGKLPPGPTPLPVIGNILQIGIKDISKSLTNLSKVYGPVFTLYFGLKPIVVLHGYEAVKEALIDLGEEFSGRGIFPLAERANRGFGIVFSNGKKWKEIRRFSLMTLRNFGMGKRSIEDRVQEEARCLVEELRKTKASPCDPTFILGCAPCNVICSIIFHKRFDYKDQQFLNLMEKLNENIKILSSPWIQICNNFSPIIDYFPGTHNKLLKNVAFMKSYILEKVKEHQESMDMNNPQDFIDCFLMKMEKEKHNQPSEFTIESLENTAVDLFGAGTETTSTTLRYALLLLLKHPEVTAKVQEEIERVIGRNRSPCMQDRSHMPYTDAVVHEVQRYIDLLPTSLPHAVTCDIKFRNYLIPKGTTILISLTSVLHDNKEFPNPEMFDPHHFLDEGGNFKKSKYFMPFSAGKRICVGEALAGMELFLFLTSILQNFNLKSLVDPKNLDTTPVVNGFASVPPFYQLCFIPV

Cytochrome P450 2C19 = Cytochrome P450 2C19 (Homo sapiens, UniProt P33261); assay: Inhibition of CYP2C19 (unknown origin) using mephenytoin as substrate preincubated for 10 mins followed by NADPH addition by LC/MS/MS analysis; type: ADME
Chain of Cytochrome P450 2C19 (P33261 whole entry): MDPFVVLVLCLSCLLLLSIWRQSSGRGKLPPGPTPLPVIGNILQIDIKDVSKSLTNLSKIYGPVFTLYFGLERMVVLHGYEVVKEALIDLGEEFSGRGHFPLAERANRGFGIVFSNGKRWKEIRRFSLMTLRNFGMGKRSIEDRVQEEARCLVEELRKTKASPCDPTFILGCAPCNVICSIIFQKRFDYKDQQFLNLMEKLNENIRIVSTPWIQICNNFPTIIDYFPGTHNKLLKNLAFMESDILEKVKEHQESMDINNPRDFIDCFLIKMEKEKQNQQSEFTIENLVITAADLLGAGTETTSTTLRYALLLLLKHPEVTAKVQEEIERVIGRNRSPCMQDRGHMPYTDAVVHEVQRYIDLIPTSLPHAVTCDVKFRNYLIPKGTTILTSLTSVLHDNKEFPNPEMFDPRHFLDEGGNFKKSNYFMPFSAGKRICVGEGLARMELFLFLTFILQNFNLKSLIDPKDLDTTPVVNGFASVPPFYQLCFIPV

Cytochrome P450 2D6 = Cytochrome P450 2D6 (Homo sapiens, UniProt P10635); assay: Inhibition of CYP2D6 (unknown origin) using bufuralol as substrate preincubated for 10 mins followed by NADPH addition by LC/MS/MS analysis; type: ADME
Chain of Cytochrome P450 2D6 (P10635 whole entry): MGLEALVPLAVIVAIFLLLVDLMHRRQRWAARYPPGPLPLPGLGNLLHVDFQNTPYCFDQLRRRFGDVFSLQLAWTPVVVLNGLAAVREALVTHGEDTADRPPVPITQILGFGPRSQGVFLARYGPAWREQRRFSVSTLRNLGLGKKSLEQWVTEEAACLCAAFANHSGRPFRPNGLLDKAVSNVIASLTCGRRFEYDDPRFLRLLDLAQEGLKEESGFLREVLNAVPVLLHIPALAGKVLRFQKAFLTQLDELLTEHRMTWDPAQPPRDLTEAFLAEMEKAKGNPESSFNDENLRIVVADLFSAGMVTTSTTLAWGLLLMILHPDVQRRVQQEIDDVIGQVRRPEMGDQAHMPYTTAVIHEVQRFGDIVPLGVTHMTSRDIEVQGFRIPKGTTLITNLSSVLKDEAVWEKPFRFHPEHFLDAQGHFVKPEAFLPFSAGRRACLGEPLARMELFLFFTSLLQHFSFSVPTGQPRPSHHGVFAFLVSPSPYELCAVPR

Cytochrome P450 3A4 [6] = target: T3, Cytochrome P450 3A4 (Homo sapiens, UniProt P08684); assay: Inhibition of CYP3A4 (unknown origin) using midazolam as substrate preincubated for 10 mins followed by NADPH addition by LC/MS/MS analysis; type: ADME
T3 sequence (P08684 whole entry): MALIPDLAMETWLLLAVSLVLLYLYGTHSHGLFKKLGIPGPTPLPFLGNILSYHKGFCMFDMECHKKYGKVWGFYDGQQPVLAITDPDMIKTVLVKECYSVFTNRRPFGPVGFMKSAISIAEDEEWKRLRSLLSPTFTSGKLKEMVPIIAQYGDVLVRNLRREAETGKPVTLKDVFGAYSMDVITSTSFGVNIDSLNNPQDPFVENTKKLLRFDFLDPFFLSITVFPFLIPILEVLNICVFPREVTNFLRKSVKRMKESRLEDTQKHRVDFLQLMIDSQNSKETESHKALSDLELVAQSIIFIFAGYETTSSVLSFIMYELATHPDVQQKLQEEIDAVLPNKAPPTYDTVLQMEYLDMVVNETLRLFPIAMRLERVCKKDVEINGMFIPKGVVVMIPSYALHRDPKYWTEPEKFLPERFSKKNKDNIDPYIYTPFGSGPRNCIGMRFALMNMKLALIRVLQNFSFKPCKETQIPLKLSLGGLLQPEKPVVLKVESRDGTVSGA

Cytochrome P450 3A4 [7] = target: T3, Cytochrome P450 3A4; assay: Inhibition of CYP3A4 (unknown origin) using testostrone as substrate preincubated for 10 mins followed by NADPH addition by LC/MS/MS analysis; type: ADME
[8] = Apparent permeability of the compound from apical to basolateral side; type: physicochemical
[9] = Photostability of compound at room temperature after 5 months by LC/MS analysis; type: physicochemical; details: 3652.5 h
[10] = Mutagenicity in human HL60 cells assessed as Chk1 phosphorylation at S345 by Western blot analysis; type: toxicity, cell-based; details: hl-60
[11] = Mutagenicity in human HL60 cells assessed as gammaH2AX foci formation at 2.5 uM after 24 hrs by immunofluorescence staining-based Zeiss LSM-780 confocal microscopy; type: toxicity, cell-based; details: hl-60, 24 h
[12] = Mutagenicity in human HL60 cells assessed as 53BP1 foci formation at 2.5 uM after 24 hrs by immunofluorescence staining-based Zeiss LSM-780 confocal microscopy; type: toxicity, cell-based; details: hl-60, 24 h
[13] = Mutagenicity in human HL60 cells assessed as caspase 3 cleavage by Western blot analysis; type: toxicity, cell-based; details: hl-60

Compound: COc1ccc(Cn2cnc3ccccc32)cc1
- IC50 (dCTP pyrophosphatase 1): > 100000 nM

Compound: Cc1nc2cc(Cl)c(Cl)cc2n1Cc1ccc(B(O)O)cc1
- IC50 (dCTP pyrophosphatase 1): 248 nM

Compound: COc1ccc(Cn2c(C)nc3c([N+](=O)[O-])cccc32)cc1
- IC50 (dCTP pyrophosphatase 1): 1450 nM

Compound: COc1ccc(Cn2c(C)nc3cc(C)c(C)cc32)cc1
- IC50 (dCTP pyrophosphatase 1): 22000 nM

Compound: O=[N+]([O-])c1c(Cl)c(Cl)cc2c1nc(C1CC1)n2Cc1ccc(B(O)O)cc1
- t1/2 (Liver microsome): 268 min
- t1/2 [1]: 13 min

Compound: Cc1nc2c([N+](=O)[O-])c(F)c(F)cc2n1Cc1ccc(B(O)O)cc1
- IC50 (dCTP pyrophosphatase 1): 529 nM

Compound: Cc1n[nH]c(C)c1CCn1c(C)nc2c([N+](=O)[O-])c(Cl)c(Cl)cc21
- IC50 (dCTP pyrophosphatase 1): 190 nM
- t1/2 (Liver microsome): 6 min
- t1/2 [1]: 7 min

Compound: COc1ccc(Cn2c(C)nc3cc(Cl)c(Cl)cc32)cc1
- IC50 (dCTP pyrophosphatase 1): 12000 nM

Compound: Cc1nc2c([N+](=O)[O-])c(Cl)c(Cl)cc2n1C(=O)c1ccccc1
- IC50 (dCTP pyrophosphatase 1): 96 nM

Compound: COc1ccc(Cn2cnc3cc(C)c(C)cc32)cc1
- IC50 (dCTP pyrophosphatase 1): > 100000 nM

Compound: COc1ccc(Cn2c(C)nc3ccccc32)cc1
- IC50 (dCTP pyrophosphatase 1): > 100000 nM

Compound: Cc1nc2c([N+](=O)[O-])c(Cl)c(Cl)cc2n1Cc1ccc(Cl)nc1
- IC50 (dCTP pyrophosphatase 1): 185 nM

Compound: Cc1nc2c([N+](=O)[O-])c(Cl)c(Cl)cc2n1-c1ccccc1
- IC50 (dCTP pyrophosphatase 1): 85 nM

Compound: Cc1nc(Cn2c(C)nc3c([N+](=O)[O-])c(Cl)c(Cl)cc32)cs1
- IC50 (dCTP pyrophosphatase 1): 240 nM

Compound: Cc1nc2c([N+](=O)[O-])c(Cl)c(Cl)cc2n1Cc1ccc(B2OC(=O)CN(C)CC(=O)O2)cc1
- Ratio [5]: 1.51
- IC50 (Cytochrome P450 1A2): 377 µM
- IC50 (Cytochrome P450 2C9): 1720 nM
- IC50 (Cytochrome P450 2C19): 2930 nM
- IC50 (Cytochrome P450 2D6): 16.8 µM
- IC50 (Cytochrome P450 3A4 [6]): 28.1 µM
- IC50 (Cytochrome P450 3A4 [7]): 21.9 µM
- IC50 (dCTP pyrophosphatase 1): 47 nM
- t1/2 (Liver microsome): 11 min
- t1/2 [1]: 109 min
- solubility [2]: > 100 µM
- remaining at 4 h [3]: 86%
- Fu [4]: 0.8%
- Papp [8]: 8.66 ×10⁻⁶ cm/s

Compound: COc1ccc(Cn2c(C)nc3c([N+](=O)[O-])c(C)c(C)cc32)cc1
- IC50 (dCTP pyrophosphatase 1): 57 nM

Compound: Cc1cc2c(nc(C)n2C(C)c2ccccc2)c([N+](=O)[O-])c1C (centres undefined)
- IC50 (dCTP pyrophosphatase 1): 250 nM

More lines, main results first:

- IC50 (dCTP pyrophosphatase 1): 73 nM
Compound: Cc1nc2c([N+](=O)[O-])c(Cl)c(Cl)cc2n1Cc1ccc(C(=O)O)cc1

- IC50 (dCTP pyrophosphatase 1): 49 nM
Compound: Cc1nc2c([N+](=O)[O-])c(Cl)c(Cl)cc2n1Cc1ccccc1

- IC50 (dCTP pyrophosphatase 1): 34 nM
Compound: CC(=O)Oc1ccc(Cn2c(C)nc3c([N+](=O)[O-])c(Cl)c(Cl)cc32)cc1

- IC50 (dCTP pyrophosphatase 1): 82 nM
Compound: Cc1nc2c([N+](=O)[O-])c(Cl)c(Cl)cc2n1Cc1ccccc1B(O)O

- IC50 (dCTP pyrophosphatase 1): 133 nM
Compound: Cc1nc2c([N+](=O)[O-])c(Cl)c(Cl)cc2n1Cc1ccc(C=O)cc1

- IC50 (dCTP pyrophosphatase 1): 46 nM
Compound: Cc1nc2c([N+](=O)[O-])c(Cl)c(Cl)cc2n1Cc1cccc(B(O)O)c1

- IC50 (dCTP pyrophosphatase 1): 331 nM
Compound: Cc1nc2c([N+](=O)[O-])c(Cl)c(Cl)cc2n1Cc1ccc(-n2cccc2)cc1

- IC50 (dCTP pyrophosphatase 1): 75 nM
- t1/2 (Liver microsome): 38 min
- t1/2 [1]: 22 min
Compound: Cc1nc2c([N+](=O)[O-])c(Cl)c(Cl)cc2n1Cc1ccc(-n2cccn2)cc1

- IC50 (dCTP pyrophosphatase 1): 165 nM
Compound: Cc1nc2c([N+](=O)[O-])c(Cl)c(Cl)cc2n1Cc1ccc(C#N)cc1

- IC50 (dCTP pyrophosphatase 1): 95 nM
Compound: COC(=O)c1ccc(Cn2c(C)nc3c([N+](=O)[O-])c(Cl)c(Cl)cc32)cc1

- IC50 (dCTP pyrophosphatase 1): 21 nM
- solubility [2]: 11 µM (≈ 3.87 µg/mL)
- remaining at 4 h [3]: 96%
- Fu [4]: 0.7%
Compound: Cc1nc2c([N+](=O)[O-])c(Cl)c(Cl)cc2n1Cc1ccc(O)cc1

- IC50 (dCTP pyrophosphatase 1): 205 nM
Compound: Cc1nc2c([N+](=O)[O-])c(Cl)c(Cl)cc2n1CCc1ccc(B(O)O)cc1

- t1/2 (Liver microsome): 30 min
- t1/2 [1]: 8 min
Compound: COc1ccc(Cn2c(C)nc3c([N+](=O)[O-])c(Cl)c(Cl)cc32)cc1

- Stability [9]: Stable
- IC50 (dCTP pyrophosphatase 1): 46 nM
- t1/2 (Liver microsome): 72 min
- t1/2 [1]: 197 min
- solubility [2]: 52 µM (≈ 19.8 µg/mL)
- remaining at 4 h [3]: 11%
- Fu [4]: 0.1%
Compound: Cc1nc2c([N+](=O)[O-])c(Cl)c(Cl)cc2n1Cc1ccc(B(O)O)cc1
- Activity [10]: Non-toxic
- Activity [11]: Non-toxic
- Activity [12]: Non-toxic
- Activity [13]: Non-toxic

- IC50 (dCTP pyrophosphatase 1): 19 nM
Compound: Cc1ccc(Cn2c(C)nc3c([N+](=O)[O-])c(Cl)c(Cl)cc32)cc1
